Results taken from publication PMC6882492, “Synthesis and biological evaluation of novel thienopyrimidine derivatives as diacylglycerol acyltransferase 1 (DGAT-1) inhibitors” (Journal of Enzyme Inhibition and Medicinal Chemistry, 2019).

Columns and labels:
hDGAT2 = target: T1, hDGAT2 (Homo sapiens, UniProt Q96PD7); assay: Enzymatic assay hDGAT2; type: biochemical
T1 sequence (Q96PD7 1-388): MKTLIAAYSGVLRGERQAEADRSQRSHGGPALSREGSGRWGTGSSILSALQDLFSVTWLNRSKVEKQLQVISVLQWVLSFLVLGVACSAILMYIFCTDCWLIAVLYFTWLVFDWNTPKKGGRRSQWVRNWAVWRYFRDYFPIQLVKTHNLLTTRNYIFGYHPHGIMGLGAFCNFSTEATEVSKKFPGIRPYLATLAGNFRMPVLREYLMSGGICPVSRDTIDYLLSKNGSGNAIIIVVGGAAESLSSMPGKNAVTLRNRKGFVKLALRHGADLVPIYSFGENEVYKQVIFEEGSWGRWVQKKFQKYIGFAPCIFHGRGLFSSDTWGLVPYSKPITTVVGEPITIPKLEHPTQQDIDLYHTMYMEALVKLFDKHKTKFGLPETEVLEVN
From the text: (§1) ACATs have sequence homology to DGAT-1 and play essential roles in cholesterol homeostasis. 17b was not explored in the enzymatic assays due to its poor pharmacokinetic profile.

hACAT2 = target: T2, hACAT2 (Homo sapiens, UniProt O75908); assay: Enzymatic assay hACAT2; type: biochemical
T2 sequence (O75908 1-522): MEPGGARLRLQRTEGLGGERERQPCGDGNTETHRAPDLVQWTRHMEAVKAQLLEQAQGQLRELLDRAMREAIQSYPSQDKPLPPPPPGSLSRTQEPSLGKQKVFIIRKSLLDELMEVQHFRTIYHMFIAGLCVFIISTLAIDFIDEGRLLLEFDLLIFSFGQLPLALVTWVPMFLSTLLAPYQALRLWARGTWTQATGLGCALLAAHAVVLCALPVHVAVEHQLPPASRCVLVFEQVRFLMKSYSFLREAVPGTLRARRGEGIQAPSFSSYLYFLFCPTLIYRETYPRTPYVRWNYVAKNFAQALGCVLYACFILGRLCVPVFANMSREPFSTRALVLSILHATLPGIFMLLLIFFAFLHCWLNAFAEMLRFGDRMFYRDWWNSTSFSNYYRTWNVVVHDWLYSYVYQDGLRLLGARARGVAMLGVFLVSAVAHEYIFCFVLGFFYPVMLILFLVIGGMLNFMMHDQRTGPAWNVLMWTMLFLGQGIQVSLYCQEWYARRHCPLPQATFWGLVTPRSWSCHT
From the text: as §1

[1] = Pharmacokinetic profile in ICR mice; conditions: mouse, in vivo
[2] = Pharmacokinetic profile in dog; type: in vivo
CYP3A4 = CYP3A4 (Homo sapiens, UniProt P08684); assay: CYP inhibition assay CYP3A4; type: in vitro ADME; conditions: fluorescence detection method; read-out: CYPs enzyme inhibition, IC50, CYP3A4
Chain of CYP3A4 (P08684 whole entry): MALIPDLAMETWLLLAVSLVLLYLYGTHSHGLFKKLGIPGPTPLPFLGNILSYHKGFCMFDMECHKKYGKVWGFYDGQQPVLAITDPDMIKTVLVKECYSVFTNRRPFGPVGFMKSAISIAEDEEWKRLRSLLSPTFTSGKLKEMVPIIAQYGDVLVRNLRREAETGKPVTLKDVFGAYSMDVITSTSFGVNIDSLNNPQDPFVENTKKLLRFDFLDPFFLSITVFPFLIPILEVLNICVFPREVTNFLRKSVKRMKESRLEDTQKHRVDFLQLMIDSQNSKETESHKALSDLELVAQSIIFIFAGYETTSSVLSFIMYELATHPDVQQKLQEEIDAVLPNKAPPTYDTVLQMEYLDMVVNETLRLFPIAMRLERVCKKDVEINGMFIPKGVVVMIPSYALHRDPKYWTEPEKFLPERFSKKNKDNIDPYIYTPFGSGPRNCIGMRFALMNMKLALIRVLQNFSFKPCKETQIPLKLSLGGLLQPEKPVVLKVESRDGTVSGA

O=C([O-])C[C@H]1CC[C@@H](c2csc3c(-c4ccc(NC(=O)Nc5cccc(Cl)c5)cc4)ncnc32)CC1.[Na+] [Compound 17a, Sodium cis-2–(4–(4-(4-(3–(3-chlorophenyl)ureido)phenyl)thieno[3,2-d]pyrimidin-7-yl)cyclohexyl)acetate]
IC50 (hDGAT2): > 10 µM | IC50 (hACAT2): > 10 µM | bioavailability ([1]; oral 10 mg/kg vs iv 3 mg/kg): 19% | Cmax ([1]; oral 10 mg/kg, n = 3): 479 ng/mL | half-life ([1]; oral 10 mg/kg, n = 3): 1.2 h | AUC ([1]; oral 10 mg/kg, n = 3, read-out: AUC 0∼24): 861 ng·h/mL | Cl ([2]; 1 mg/kg iv, 3 mg/kg po): 6.7 ± 1.7 mL/min/kg | half-life ([2]; in vivo, 3 mg/kg po): 3.6 ± 0.7 h | bioavailability ([2]; in vivo, 3 mg/kg po vs 1 mg/kg iv): 53% | AUC ([2]; in vivo, 3 mg/kg po, read-out: AUC 0 ∼ 24): 8240 ± 2300 ng·h/mL | IC50 (CYP3A4): 16.2 µM
